“And” between values parts separate entries of the source, which are not always exact repeats. Equal entries are not always repeated. Marks after values point to notes of the source that are not given here.
Experiments:
[1] = tested on: 16 healthy males, ranging from 48 to 75 years old; experiment: Test on 16 volunteers: KAREI-SHU aldehydes collected from worn underwears (Experiment 8); type: in vivo, human
Description: In accordance with the test on volunteer in Experiment 7, the following experiment was conducted with more volunteers, while focusing particularly on the formation inhibitory effect on KAREI-SHU by trehalose. The number of volunteers used in this experiment was 16 healthy males, ranging from 48 to 75 years old. Cotton-made half-sleeve underwears with substantially the same quality were purchased, washed with only water and dried twice in a cyclic manner for volunteers' use as underwears during the test period. As for towels and gauzes used by volunteers during the test period, those with substantially the same quality were purchased, washed with only water and dried twice in a cyclic manner for use. The initiation day of the test was expressed with day 0, and when the volunteers use body-odor-care-goods such as deodorants and bath salts daily, they were asked to suspend their use two days before the initiation of the test, i.e., day −2.
Until about 10 a.m. on day 0, each volunteer was in a usual manner asked to take a bath to sufficiently wash their bodies including hairs. After bathing, they were sequentially allowed to wipe water drops on the surface of their bodies with towels, allowed to wear the prepared underwears, and allowed to spend their daily life as usual.
At about 5 p.m. on day 1, the underwears worn by the volunteers were collected from them and, as underwears for a […], subjected to the following analysis.
Until 10 a.m. on day 1, each volunteer was allowed to take a bath similarly as done on day 0. Just after bathing, they were allowed to wipe water drops on their body surfaces with towels, and sprayed by a sprayer over upper half parts of their bodies with a 2% (w/w) aqueous trehalose solution, which had been previously prepared and provided to the volunteers, followed by extending the solution to homogeneity over the upper half parts in such a manner of tapping on the surfaces of the parts with gauzes, which had been previously soaked in a fresh preparation of the same solution as above. By repeating the steps of spraying and extending for several times before natural dryness, trehalose was applied over the surfaces of upper half parts of the volunteers. Thereafter, the volunteers were allowed to wear new underwears prepared previously and to spend their daily life as usual.
Until about 10 a.m. on day 2, each volunteer was allowed to take a bath similarly as done on day 0. Just after bathing, the volunteers were applied with trehalose over the surfaces of their upper half parts similarly as done on day 1, then allowed to wear new underwears prepared previously and spend their daily life as usual.
At about 5 p.m. on day 3, the underwears worn by the volunteers were collected from the volunteers and, as underwears for a […], subjected to the following analysis.
The underwears collected from the volunteers in the control and test systems were instantly treated by the method in Experiment 7, followed by collecting in a column volatile aldehydes as DNPH derivatives from the underwears. The DNPH derivatives collected in the column were subjected to analysis according to the method in Experiment 7. Using as standard specimens 2-nonenal, 2-octenal, and 2-hexenal, they were separately subjected to GC analysis under the same conditions as above. Based on the gas chromatograms obtained from the above analyses, the contents (μg) of 2-nonenal, 2-octenal, and 2-hexenal, collected from the underwears in the test and control systems, were respectively determined. Respective data obtained from all the volunteers are in Table 8.
As shown in the data of the control system in Table 8, 2-nonenal, 2-octenal and 2-hexenal, known as substances causative of KAREI-SHU, were particularly detected in the underwears from volunteers age over 56. […]

[2] = Panel test of body-odor-like smell (KAREI-SHU), 9-hexadecanoic acid heated (Experiment 3); parameters: key: +++: the same or higher level of odor; ++: slightly lower level of odor; +: clearly lower level of odor than that of the control system; settings: compared with control system
Source text: Upon the HSG samples, the level of a body-odor-like smell was examined on a panel test consisting of six professional panels; the panels directly smelled the samples from each glass vial and judged the level of the smells for each samples with test saccharides based on the following four ranks, i.e., the same or higher level of odor (+++), slightly lower level of odor (++), clearly lower level of odor (+), and odorless (−) as compared with the control system. Summing up the data from the panels, the samples tested were totally evaluated.
The content of 2-nonenal in HSG was measured by GC similarly as in Experiment 1 except that 9-hexadecanoic acid or palmitoleic acid was used as a fatty acid and 2-nonenal, a volatile aldehyde, was used as a standard substance. The level of body-odor-like smell, particularly with respect to KAREI-SHU, in each sample was evaluated by panel test in accordance with the method in Experiment 1.

[3] = individual volunteers A-P (age 48-75), 2% (w/w) aqueous trehalose solution on upper half of body

Compound	Content of 2-Hexenal collected from volunteers' underwears, mean ± standard deviation, with trehalose application ([1]; Age 54 or under (n = 8), control 0.06 ± 0.18)	Content of 2-Nonenal collected from volunteers' underwears, mean ± standard deviation, with trehalose application ([1]; Age 54 or under (n = 8), control 0.19 ± 0.21)	Content of 2-Octenal collected from volunteers' underwears, mean ± standard deviation, with trehalose application ([1]; Age 54 or under (n = 8), control 1.00 ± 1.00, p < 0.05 to control)	Total content of 2-nonenal, 2-octenal and 2-hexenal collected from volunteers' underwears, mean ± standard deviation, with trehalose application ([1]; Age 54 or under (n = 8), control 1.26 ± 1.02, p < 0.05 to control)	Content of 2-Hexenal collected from volunteers' underwears, mean ± standard deviation, with trehalose application ([1]; Age 56 or higher (n = 8), control 5.44 ± 4.39, p < 0.05 to control)	Content of 2-Octenal collected from volunteers' underwears, mean ± standard deviation, with trehalose application ([1]; Age 56 or higher (n = 8), control 5.51 ± 3.71, p < 0.05 to control)	Content of 2-Nonenal collected from volunteers' underwears, mean ± standard deviation, with trehalose application ([1]; Age 56 or higher (n = 8), control 6.61 ± 3.75, p < 0.05 to control)	Total content of 2-nonenal, 2-octenal and 2-hexenal collected from volunteers' underwears, mean ± standard deviation, with trehalose application ([1]; Age 56 or higher (n = 8), control 17.17 ± 10.14, p < 0.01 to control)	Content of volatile aldehydes collected from volunteer, 2-Hexenal, with trehalose application (test system) [1, 3]	Content of volatile aldehydes collected from volunteer, 2-Octenal, with trehalose application (test system) [1, 3]	Content of volatile aldehydes collected from volunteer, Nonenal, with trehalose application (test system) [1, 3]	Content of volatile aldehydes collected from volunteer, Total of 2-nonenal, 2-octenal and 2-hexenal, with trehalose application (test system) [1, 3]	Evaluation of panel test [2]
OC[C@H]1O[C@H](O[C@H]2O[C@H](CO)[C@@H](O)[C@H](O)[C@H]2O)[C@H](O)[C@@H](O)[C@@H]1O [Trehalose, trehalose]	0.09 ± 0.24^ μg	0.19 ± 0.40^ μg	0.21 ± 0.36^a μg	0.48 ± 0.50^a μg	0.71 ± 1.65^a μg	2.59 ± 1.92^a μg	2.11 ± 1.87^a μg	5.40 ± 4.66^b μg	0.00 μg (13×) and 0.68 μg and 0.95 μg and 4.70 μg	0.24 μg and 0.28 μg and 1.04 μg and 0.00 μg (5×) and 1.82 μg and 1.07 μg and 2.59 μg and 1.13 μg and 5.43 μg and 4.24 μg and 4.42 μg and 0.11 μg	0.17 μg and 0.00 μg (6×) and 0.18 μg and 1.17 μg and 1.66 μg and 1.10 μg and 1.41 μg and 0.35 μg and 2.71 μg and 4.65 μg and 4.99 μg	0.41 μg and 0.97 μg and 1.04 μg and 0.18 μg and 1.17 μg and 3.48 μg and 1.10 μg and 1.07 μg and 4.96 μg and 1.47 μg and 8.14 μg and 8.89 μg and 14.12 μg and 0.00 μg (2×) and 0.11 μg	–
OC[C@H]1O[C@@](CO)(O[C@H]2O[C@H](CO)[C@@H](O)[C@H](O)[C@H]2O)[C@@H](O)[C@@H]1O [Sucrose, sucrose]	–	–	–	–	–	–	–	–	–	–	–	–	+++
